Experimental findings from article PMC12957798, “Adaptation of plateau frog peptide: From antimicrobial to angiogenic and proliferative functions” (Journal of Advanced Research, 2025) are described below.

For one assay, the system named is (p-Smad2/3)/(Smad2/3). As to the kind of experiment: Western blot p-Smad2/3 / Smad2/3 in HaCaT. It counts as cell-based, Human. To be noted: VEGF, n = 3. On the procedure:
(§1) HaCaT was inoculated in 12-well plates (2 × 10^5 cells/well) and cultured for 24 h. Afterwards, HaCaT cells were treated with equal amounts of VEGF, SC17-2, and PBS for 16 h. Cells were washed with PBS, after which the samples were collected and added to 1 mL of RIPA lysate containing protease inhibitors and phosphatase inhibitors and placed on ice for 30 min. Allowed to be after sufficient lysis, the supernatant was centrifuged and collected to determine the protein concentration using a nanodrop, followed by the addition of SDS sampling buffer and heating at 95 °C for 10 min. Samples were loaded and run on a gel block based on the determined sample concentration, and then electrotransferred onto a 0.45 μm PVDF membrane. […] After washing three times with TBST, proteins were visualised and scanned by enhanced chemiluminescence using the ChemiDoc XRS imaging system (Bio-Rad, Hercules, CA, USA).

The next assay has as its system TGF-β. The assay is described as follows: Western blot TGF-β in HaCaT. It counts as cell-based, Human. To be noted: VEGF, n = 3. The protocol:
as §1

For the next assay, the system named is BALB/c mice. The assay is described as follows: Mouse full-thickness skin wound healing. It counts as in vivo. To be noted: day 13, VEGF 20 ng/mL, 20 μL daily on wound, relative to day 1, mean ± SEM, n = 7. On the procedure:
Mice were anaesthetised with sodium pentobarbital 2 % by intraperitoneal injection (0.1 mL/20 g mouse body weight), and after anaesthesia, hair was removed from the back using depilatory cream and power scissors, and circular full-thickness skin wounds of the same diameter were marked and created on the back of each mouse using circular stamps and red sealant. The mouse wounds were then covered and infiltrated daily with 20 μL of different concentrations of SC17-2 or 20 ng/mL VEGF, and an equal volume of saline was used in the control group. The mice were anaesthetised by isoflurane nebulisation (concentration 2 %) every two days and then placed under an optical camera to photograph the effect of the wound area.
Sodium pentobarbital (2 %) was utilised for the anaesthetisation of mice by intraperitoneal injection (0.1 mL/20 g of mouse body weight). Subsequent to the induction of anaesthesia, the dorsal hair was removed using depilatory creams and electric scissors. Thereafter, circular full skin wounds of the same diameter were marked and created on the back of each mouse using circular stamps and red stencils. Mouse wounds were then covered and infiltrated daily with 20 μL of different concentrations of SC17-2 or 20 ng/mL of VEGF, and an equal volume of saline was used in the control group. Mice were anaesthetised every two days using isoflurane nebulisation followed by anaesthesia (concentration 2 %), after which they were placed under an optical camera to photograph the effect of wound area. After 13 days of treatment, mice were anaesthetised using isoflurane nebulisation followed by injection of an overdose of sodium pentobarbital to euthanise the mice (200 mg/kg). The wounds and their surrounding tissues were then excised for histopathological evaluation (Masson and H&E staining) and analysed by Enface immunofluorescence staining.

The subject of another assay is p-ERK/ERK. As to the kind of experiment: Western blot p-ERK/ERK in HaCaT. To be noted: VEGF, n = 3. It counts as cell-based, Human. The protocol: as §1
(Immunoblotting shows a protein as a band on a membrane.)

Another assay concerns A. baumannil ATCC1968. As to the kind of experiment: Broth microdilution MIC, A. baumannii. It counts as cell-based, Acinetobacter baumannii. To be noted: positive control, 37 °C, 24 h, OD600. On the procedure: (§2) Disk diffusion and broth microdilution tests were selected as the standard method for screening the antimicrobial activity of SC17-2 [58]. The experiments were conducted utilising the disk diffusion test, whereby the following strains were examined: Acinetobacter baumannii (ATCC 19606), Candida auris (ATCC 10231), Pseudomonas aeruginosa (ATCC 27853) and Staphylococcus aureus (ATCC 6538). The concentration of bacterial suspension was then adjusted to 1 × 10^5 CFU/mL with saline, after which it was set aside. Separate plates containing bacterial agar were prepared: MH agar was utilised for the isolation of bacterial samples, while Sartorius agar was employed for the isolation of fungal samples. The suspensions containing the aforementioned microorganisms were then spread on the designated plates at a rate of 1:1000. A sterile filter paper was used to dispense 1 mL of SC17-2 (10 mg/mL), with equal amounts of PBS and Vancomycin/Colistin serving as controls. The plates were then subjected to the appropriate temperature (24 h at 37 °C) and subsequently observed under a camera to ascertain the results. […] At the conclusion of this period, the absorbance was measured using a Microplate Reader (Synergy H1, BioTek, USA) with a wavelength of 600 nm. […]
Background: Broth dilution looks for growth in wells or tubes with falling amounts of substance.

In a further assay the test system is S. aureus ATCC6538. As to the kind of experiment: Broth microdilution MIC, S. aureus. It counts as cell-based, Staphylococcus aureus. Details: unit not given beside the values. To be noted: positive control, 37 °C, 24 h, OD600. The protocol:
as §2

For assay [1], the system named is Escherichia coli ATCC2771. As to the kind of experiment: Broth microdilution MIC, E. coli. It counts as cell-based. Details: unit not given beside the values. To be noted: positive control, 37 °C, 24 h, OD600. On the procedure:
as §2

For the compound VEGF, the Smad2/3 phosphorylation result in the assay on (p-Smad2/3)/(Smad2/3) was “significantly increased Smad2/3 phosphorylation”. Besides, the “expression of TGF-β” value with TGF-β was “significantly increase the expression of TGF-β”. In the assay with BALB/c mice, this compound yielded a wound area of 7.04 ± 1.43%. For the same compound, the ERK phosphorylation entry in the assay on p-ERK/ERK was “significantly increased ERK phosphorylation”.

In the case of `CN[C@H](CC(C)C)C(=O)N[C@H]1C(=O)N[C@@H](CC(N)=O)C(=O)N[C@H]2C(=O)N[C@H]3C(=O)N[C@H](C(=O)N[C@H](C(=O)O)c4cc(O)cc(O)c4-c4cc3ccc4O)[C@H](O)c3ccc(c(Cl)c3)Oc3cc2cc(c3O[C@@H]2O[C@H](CO)[C@@H](O)[C@H](O)[C@H]2O[C@H]2C[C@](C)(N)[C@H](O)[C@H](C)O2)Oc2ccc(cc2Cl)[C@H]1O` [Vancomycin], the MIC in the assay with A. baumannil ATCC1968 stood at 0.78.

Consider Colistin, for which the MIC (in the assay on S. aureus ATCC6538; in assay [1]) was 0.78 in each case.
